Data taken from ChEMBL document CHEMBL3132795, “Synthesis, functional and binding profile of (R)-apomorphine based homobivalent ligands targeting the dopamine D2 receptor” (Medchemcomm, 2013).

Legend:
[1] = target: T1, D(2) dopamine receptor (Homo sapiens, UniProt P14416); experiment: Agonist activity at human recombinant dopamine D2L receptor expressed in CHOFlpIn cells assessed as ERK1/2 phosphorylation by alphascreen assay; assay type: cell-based
[2] = target: T1, D(2) dopamine receptor; experiment: Displacement of [3H]spiperone from human recombinant dopamine D2L receptor expressed in CHOFlpIn cells after 3 hrs by liquid scintillation counting; assay type: cell-based

T1 sequence (P14416 whole entry): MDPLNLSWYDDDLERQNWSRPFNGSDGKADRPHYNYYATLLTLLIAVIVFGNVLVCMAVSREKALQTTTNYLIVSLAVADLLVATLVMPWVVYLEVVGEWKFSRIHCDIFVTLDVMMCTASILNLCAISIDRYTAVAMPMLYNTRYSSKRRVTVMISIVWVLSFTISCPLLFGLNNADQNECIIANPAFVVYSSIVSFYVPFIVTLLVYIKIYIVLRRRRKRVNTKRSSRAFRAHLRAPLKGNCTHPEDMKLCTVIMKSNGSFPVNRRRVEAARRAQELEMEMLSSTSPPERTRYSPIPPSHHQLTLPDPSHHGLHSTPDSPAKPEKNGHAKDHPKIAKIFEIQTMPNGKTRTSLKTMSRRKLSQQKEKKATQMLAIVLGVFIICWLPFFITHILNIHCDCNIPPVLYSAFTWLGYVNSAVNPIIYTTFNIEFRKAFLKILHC

| SMILES | EC50 [1] [µM] | IC50 [2] [µM] |
| --- | --- | --- |
| CN1CCc2cccc3c2[C@H]1Cc1ccc(OCCCNC(=O)CCCCCCCCCCCCC(=O)NCCCOc2ccc4c(c2O)-c2cccc5c2[C@@H](C4)N(C)CC5)c(O)c1-3 | 0.224 | – |
| CN1CCc2cccc3c2[C@H]1Cc1ccc(OCCCNC(=O)CCCCCCCCCCCCCCCCCCC(=O)NCCCOc2ccc4c(c2O)-c2cccc5c2[C@@H](C4)N(C)CC5)c(O)c1-3 | 0.248 | 1.55 |
| CN1CCc2cccc3c2[C@H]1Cc1ccc(OCCCNC(=O)CCCCCCCCCCCCCCCCC(=O)NCCCOc2ccc4c(c2O)-c2cccc5c2[C@@H](C4)N(C)CC5)c(O)c1-3 | 0.385 | 2.68 |
| CN1CCc2cccc3c2[C@H]1Cc1ccc(OCCCNC(=O)CCC(=O)NCCCOc2ccc4c(c2O)-c2cccc5c2[C@@H](C4)N(C)CC5)c(O)c1-3 | 0.396 | 4.36 |
| CN1CCc2cccc3c2[C@H]1Cc1ccc(OCCCNC(=O)CCCCCCCCC(=O)NCCCOc2ccc4c(c2O)-c2cccc5c2[C@@H](C4)N(C)CC5)c(O)c1-3 | 0.079 | 1.35 |
| CC(=O)NCCCOc1ccc2c(c1O)-c1cccc3c1[C@@H](C2)N(C)CC3 | 0.132 | – |
| CN1CCc2cccc3c2[C@H]1Cc1ccc(OCCCNC(=O)CCCCCCCCCCC(=O)NCCCOc2ccc4c(c2O)-c2cccc5c2[C@@H](C4)N(C)CC5)c(O)c1-3 | 0.11 | 0.183 |
| CN1CCc2cccc3c2[C@H]1Cc1ccc(OCCCNC(=O)CCCCC(=O)NCCCOc2ccc4c(c2O)-c2cccc5c2[C@@H](C4)N(C)CC5)c(O)c1-3 | 0.149 | 5.32 |
| CN1CCc2cccc3c2[C@H]1Cc1ccc(OCCCN)c(O)c1-3 | 0.01 | – |
| CN1CCc2cccc3c2[C@H]1Cc1ccc(OCCCNC(=O)CCCCCNC(=O)OC(C)(C)C)c(O)c1-3 | 0.266 | 6.54 |
| CN1CCc2cccc3c2[C@H]1Cc1ccc(OCCCNC(=O)CCCCCCC(=O)NCCCOc2ccc4c(c2O)-c2cccc5c2[C@@H](C4)N(C)CC5)c(O)c1-3 | 0.419 | 3.6 |
